Data set [1] has as its system human T lymphoblast cell line (Jurkat). The data set is described as follows: Inhibition of T-cell proliferation (Jurkat, 3H-TdR incorporation). Type of data set: cell-based. As to conditions: for IC50: Homo sapiens, Jurkat cells, 3 days culture, 3H-TdR pulse last 4 hours; for inhibitory effect on T-cell proliferation (in words): Jurkat, cf. Table 1. The method, then:
Inhibition of T cell proliferation was studied in a functional assay. A human T lymphoblast cell line (Jurkat) was cultured in the presence and absence, respectively, of DHODH inhibiting compounds. Jurkat cells were seeded in microtiterplates at a concentration of 5×10^5/mL in RPMI 1640 growth media supplemented with ultraglutamin, 10% fetal calf serum, 1 mM sodium pyruvat, 10 mM HEPES and 0.1 mg/mL gentamycin. A dilution series of ten different concentrations of inhibitor was added to the wells and the plates were kept in a cell incubator for 3 days. At the beginning of the last 4 hours period, the cultures were pulsed with 10 μl/well 0.1 Ci/mmol 3H-TdR and then harvested on filter papers and counted with a ([…]. The IC50 values for each compound were calculated from the obtained dose response curves. Adding uridine to a concentration of about 50 μM in the wells monitored the specificity for the mechanism i.e., the inhibition of cell proliferation is due to DHODH inhibition and not to a general cell toxicity of the compounds. This addition of uridine reverses the anti-proliferative effect by bypassing the DHODH enzyme using an external source of pyrimidine. Results in respect of a number of compounds of the invention are reported as Jurkat IC50 (in μM) in Table 1.
(§1) The inhibition of T cell proliferation was studied in a human T lymphoblast cell line (Jurkat). The IC50 value for each compound was calculated from the dose response curve. Adding uridine was used to monitor the specificity of the DHODH mechanism. The metabolic stability was studied in human liver microsomes. Table 1 exemplifies the invention, without limiting the scope thereof.

A short description of data set [2]: Metabolic stability in human liver microsomes. Type of data set: in vitro ADME. To be noted: for half-life at 0.5 μM / t1/2: human liver microsomes, 0.5 μM compound, 1 mg/mL protein, 1 mM NADPH, pH 7.4, 37° C., "stable" = no degradation could be confirmed. The method, then: The metabolic stability of the test compounds was determined using human liver microsomes. Incubations were performed with a compound concentration of 0.5 μM and a protein concentration of 1 mg/mL in 50 mM sodium phosphate buffer at physiological pH (7.4) and temperature (37° C.). The incubation mixture was preincubated at 37° C. prior to addition of NADPH (1 mM, final concentration). At several time points during 60 minutes, aliquots were removed and added to a 96 well plate placed on dry ice and deep-frozen. Samples were analyzed with LC-MS for concentration of parent compound. From the slope of the log [parent compound] vs. incubation time regression line, the in vitro half-life […] was determined. The intrinsic clearance (CLint) can be calculated using a modified Michaelis-Menten relationship, i.e., CLint=ln 2/t1/2. The CLint can then be converted to CL by using the well-stirred model of hepatic extraction. A value of 1.24 L/h/kg of the hepatic blood flow in man can be used. Results with respect to a number of compounds of the invention are reported as t1/2 (in minutes) in Table 1.
as §1
For orientation: Liver microsomes are a subcellular fraction often used to study metabolism.

Molecules are shown by their SMILES.

As usually defined, the IC50 is the midpoint of a concentration-inhibition curve. Low readings indicate greater potency, high ones weaker potency. For orientation: half-life means the time in which the quantity being followed falls by half. `CCC(=O)Nc1ccc(/C=C/c2ccc(F)c(Cl)c2)cc1C(=O)O` [INV 26, 5-[(E)-2-(3-Chloro-4-fluoro-phenyl)-vinyl]-2-propionylamino-benzoic acid] displayed a concentration for half-maximal inhibition (IC50) in data set [1] of 0.75 µM. In addition, the half-life at 0.5 μM in data set [2] came out at 1.22 h.

`CCC(=O)Nc1ccc(/C=C/c2ccc(OC(F)(F)F)c(Cl)c2)cc1C(=O)O` [INV 28, 5-[(E)-2-(3-Chloro-4-trifluoromethoxy-phenyl)-vinyl]-2-propionylamino-benzoic acid]: in data set [1], 0.6 µM corresponded to half-maximal inhibition (IC50).

Molecule `CCC(=O)Nc1ccc(COc2ccc(Cl)cc2Br)cc1C(=O)O` [INV 9, 5-(2-Bromo-4-chloro-phenoxymethyl)-2-propionylamino-benzoic acid] gave an IC50 in data set [1] of 0.24 µM. Moreover, the half-life at 0.5 μM in data set [2] turned out to be 2.8 h.

The molecule `CCC(=O)Nc1ccc(COc2ccc(F)cc2C(F)(F)F)cc1C(=O)O` [INV 2, 5-(4-Fluoro-2-trifluoromethyl-phenoxymethyl)-2-propionylamino-benzoic acid] returned a concentration for half-maximal inhibition (IC50) in data set [1] of 0.58 µM. Besides, the half-life at 0.5 μM in data set [2] is 3.93 h.

For `CCC(=O)Nc1ccc(COc2ccc(F)c(Cl)c2)cc1C(=O)O` [INV 19, 5-(3-Chloro-4-fluoro-phenoxymethyl)-2-propionylamino-benzoic acid], the IC50 in data set [1] came out at 0.42 µM. In addition, in data set [2], the half-life at 0.5 μM came out at 1.18 h.

As for `CCC(=O)Nc1ccc(OCc2ccc(C(F)(F)F)cc2Br)cc1C(=O)O` [INV 30, 5-(2-Bromo-4-trifluoromethyl-benzyloxy)-2-propionylamino-benzoic acid], in data set [1], the IC50 was determined as 0.59 µM. For the same molecule, in data set [2], the half-life at 0.5 μM came to 3.18 h.

The molecule `CCC(=O)Nc1ccc(COc2ccc(C(F)(F)F)cc2Cl)cc1C(=O)O` [INV 4, 5-(2-Chloro-4-trifluoromethyl-phenoxymethyl)-2-propionylamino-benzoic acid] gave an IC50 in data set [1] of 0.42 µM. For the same molecule, in data set [2], the t1/2 entry was “stable”.

In data set [1], `CCC(=O)Nc1ccc(/C=C/c2ccc(C(F)(F)F)cc2C(F)(F)F)cc1C(=O)O` [INV 11, 5-[(E)-2-(2,4-Bis-trifluoromethyl-phenyl)-vinyl]-2-propionylamino-benzoic acid] yielded a half-maximal inhibitory concentration (IC50) of 0.09 µM. The half-life at 0.5 μM in data set [2] came out at 8.15 h.

In data set [1], `CCC(=O)Nc1ccc(COc2ccc(F)c(C(F)(F)F)c2)cc1C(=O)O` [INV 17, 5-(4-Fluoro-3-trifluoromethyl-phenoxymethyl)-2-propionylamino-benzoic acid] came in with an IC50 of 0.53 µM. Besides, the half-life at 0.5 μM in data set [2] came out at 1.73 h.

In turn, `CCC(=O)Nc1ccc(OCc2ccccc2C(F)(F)F)cc1C(=O)OC` [REF 10, 2-Propionylamino-5-(2-trifluoromethyl-benzyloxy)-benzoic acid methyl ester, reference compound] returned a concentration for half-maximal inhibition (IC50) in data set [1] of 12.3 µM.

On to `CCC(=O)Nc1ccc(/C=C/c2ccc(Cl)cc2Cl)cc1C(=O)O` [INV 16, 5-[(E)-2-(2,4-Dichloro-phenyl)-vinyl]-2-propionylamino-benzoic acid], for which the IC50 in data set [1] was found to be 0.02 µM. The half-life at 0.5 μM in data set [2] worked out at 1.83 h.

As to `CCC(=O)Nc1ccc(COc2ccc(Br)c(Cl)c2)cc1C(=O)O` [INV 20, 5-(4-Bromo-3-chloro-phenoxymethyl)-2-propionylamino-benzoic acid], half-maximal inhibition in data set [1] (IC50) was put at 0.73 µM. Further, the half-life at 0.5 μM in data set [2] came out at 1.2 h.

Turning to `CCC(=O)Nc1ccc(/C=C/c2ccc(Cl)c(Cl)c2)cc1C(=O)O` [INV 27, 5-[(E)-2-(3,4-Dichloro-phenyl)-vinyl]-2-propionylamino-benzoic acid], in data set [1], the IC50 was 0.48 µM. For the same molecule, the half-life at 0.5 μM in data set [2] turned out to be 1.92 h.

Turning to `COc1ccc(OC)c(COc2ccc(NC(C)=O)c(C(=O)O)c2)c1` [REF 8, 2-acetylamino-5-(2,5-dimethoxy-benzyloxy)-benzoic acid, reference compound], in data set [1], half-maximal inhibition (IC50) was put at 6.2 µM and the “inhibitory effect on T-cell proliferation (in words)” value is “only a weak inhibitory effect”. The “oxidation half-life / stability towards oxidation by human P450 (in words)” value in data set [2] (human in vitro system, cf. Table 1) is “short half-life”.

In data set [1], `CCC(=O)Nc1ccc(COc2ccc(C(F)(F)F)cc2C(F)(F)F)cc1C(=O)O` [INV 1, 5-(2,4-Bis-trifluoromethyl-phenoxymethyl)-2-propionylamino-benzoic acid] came in with an IC50 of 0.6 µM. Moreover, the t1/2 entry in data set [2] is listed as “stable”.

`O=C(O)c1cc(OCc2ccc(Br)cc2C(F)(F)F)ccc1NC(=O)C1CC1` [INV 31, 5-(4-Bromo-2-trifluoromethyl-benzyloxy)-2-(cyclopropanecarbonyl-amino)-benzoic acid] gave an IC50 in data set [1] of 0.42 µM. Moreover, in data set [2], the half-life at 0.5 μM was 3.87 h.

Consider `COc1ccc(OC)c(CCc2ccc(NC(C)=O)c(C(=O)O)c2)c1` [REF 9, 2-acetylamino-5-[2-(2,5-dimethoxy-phenyl)-ethyl]-benzoic acid, reference compound], for which, in data set [1], half-maximal inhibition (IC50) required 12 µM and the “inhibitory effect on T-cell proliferation (in words)” value is “very weak inhibitory effect”.

`CCC(=O)Nc1ccc(/C=C/c2ccc(C(F)(F)F)c(F)c2)cc1C(=O)O` [INV 25, 5-[(E)-2-(3-Fluoro-4-trifluoromethyl-phenyl)-vinyl]-2-propionylamino-benzoic acid] had an IC50 in data set [1] of 0.74 µM. Further, the t1/2 entry in data set [2] was “stable”.

In turn, `CCC(=O)Nc1ccc(OCc2ccc(Cl)cc2C(F)(F)F)cc1C(=O)O` [INV 29, 5-(4-Chloro-2-trifluoromethyl-benzyloxy)-2-propionylamino-benzoic acid] came in with an IC50 in data set [1] of 0.57 µM. In addition, the half-life at 0.5 μM in data set [2] is 1.83 h.

In the case of `CCC(=O)Nc1ccc(COc2ccc(Cl)c(C(F)(F)F)c2)cc1C(=O)O` [INV 18, 5-(4-Chloro-3-trifluoromethyl-phenoxymethyl)-2-propionylamino-benzoic acid], in data set [1], the half-inhibitory concentration (IC50) stood at 0.84 µM. Further, the half-life at 0.5 μM in data set [2] is 7.73 h.

The molecule `CCC(=O)Nc1ccc(/C=C/c2ccc(F)cc2Cl)cc1C(=O)O` [INV 15, 5-[(E)-2-(2-Chloro-4-fluoro-phenyl)-vinyl]-2-propionylamino-benzoic acid] registered a 50% inhibitory concentration (IC50) in data set [1] of 0.035 µM. Besides, the half-life at 0.5 μM in data set [2] turned out to be 2.28 h.

In data set [1], `CCC(=O)Nc1ccc(COc2ccc(OC(F)(F)F)cc2Cl)cc1C(=O)O` [INV 10, 5-(2-Chloro-4-trifluoromethoxy-phenoxymethyl)-2-propionylamino-benzoic acid] yielded an IC50 of 0.24 µM. For the same molecule, the t1/2 result in data set [2] is given as “stable”.

For the molecule `CCC(=O)Nc1ccc(/C=C/c2ccc(F)cc2F)cc1C(=O)O` [INV 14, 5-[(E)-2-(2,4-Difluoro-phenyl)-vinyl]-2-propionylamino-benzoic acid], in data set [1], the IC50 was determined as 0.24 µM. Further, the half-life at 0.5 μM in data set [2] was 3.55 h.

Consider `CCC(=O)Nc1ccc(/C=C/c2ccc(F)cc2C(F)(F)F)cc1C(=O)O` [INV 12, 5-[(E)-2-(4-Fluoro-2-trifluoromethyl-phenyl)-vinyl]-2-propionylamino-benzoic acid], for which the IC50 in data set [1] is 0.16 µM. Moreover, the half-life at 0.5 μM in data set [2] was determined as 2.65 h.

`CCC(=O)Nc1ccc(COc2ccc(Br)cc2C(F)(F)F)cc1C(=O)O` [INV 3, 5-(4-Bromo-2-trifluoromethyl-phenoxymethyl)-2-propionylamino-benzoic acid] returned an IC50 in data set [1] of 0.47 µM. In addition, the half-life at 0.5 μM in data set [2] amounted to 3.9 h.

The molecule `CCC(=O)Nc1ccc(COc2ccc(OC(F)(F)F)c(Br)c2)cc1C(=O)O` [INV 22, 5-(3-Bromo-4-trifluoromethoxy-phenoxymethyl)-2-propionylamino-benzoic acid] had an IC50 in data set [1] of 0.71 µM. Also, in data set [2], the half-life at 0.5 μM was determined as 3.3 h.

In data set [1], `CCC(=O)Nc1ccc(COc2ccc(F)cc2Cl)cc1C(=O)O` [INV 5, 5-(2-Chloro-4-fluoro-phenoxymethyl)-2-propionylamino-benzoic acid] had an IC50 of 0.19 µM. Further, in data set [2], the half-life at 0.5 μM is 5.38 h.

Molecule `CCC(=O)Nc1ccc(COc2ccc(OC(F)(F)F)c(Cl)c2)cc1C(=O)O` [INV 21, 5-(3-Chloro-4-trifluoromethoxy-phenoxymethyl)-2-propionylamino-benzoic acid] gave a 50% inhibitory concentration (IC50) in data set [1] of 0.89 µM. In addition, in data set [2], the half-life at 0.5 μM stood at 2.8 h.

As for `CCC(=O)Nc1ccc(COc2ccc(F)cc2Br)cc1C(=O)O` [INV 8, 5-(2-Bromo-4-fluoro-phenoxymethyl)-2-propionylamino-benzoic acid], it took 0.36 µM to reach half-maximal inhibition in data set [1] (IC50). Also, in data set [2], the half-life at 0.5 μM was 5.33 h.
